Source: patent publication EP3495350B1, “COMPOUND INHIBITING FORMATION OF C-MYC/MAX/DNA COMPLEX” (National Cancer Center, priority 2016, dated 2018)

Experiments:
[1] = test system: MBT-2; test: Cell based assay, cell viability (CellTiter-Glo), MBT-2; settings: 72 hours, 0 to 2 µM; read-out: cell based assay cell line 1 MBT-2 IC50
Procedure: (§1) Commercially available bladder cancer cell lines were treated with trypsin-EDTA and seeded in each well of a 96 well plate, followed by incubation for 24 hours. After incubation, candidate compounds were added to each well at a final concentration of 0 to 2 µM. The compound-treated cells were further incubated for 72 hours. Cell viability was measured using an ATP detection method (CellTiter-Glo Luminescent Cell Viability Assay, Promega).
(§2) The selectivity of the compounds of the present disclosure to cancer cells was evaluated in the same manner as described in "2. Cell based assay".

[2] = test system: KU19-19; test: Cell based assay, cell viability (CellTiter-Glo), KU19-19; settings: Homo sapiens, KU-19-19; 72 hours, 0 to 2 µM; read-out: cell based assay cell line 2 KU19-19 IC50
Procedure: as §1, §2

[3] = test system: 253J; test: Cell based assay, cell viability (CellTiter-Glo), 253J; settings: Homo sapiens; 72 hours, 0 to 2 µM; read-out: cell based assay cell line 3 253J IC50
Procedure: as §1, §2

[4] = test system: UM-UC-3; test: Cell based assay, cell viability (CellTiter-Glo), UM-UC-3; settings: Homo sapiens, UMUC3; 72 hours, 0 to 2 µM; read-out: cell based assay cell line 4 UM-UC-3 IC50
Procedure: as §1, §2

SMILES | IC50 [1] [µM] | IC50 [2] [µM] | IC50 [3] [µM] | IC50 [4] [µM]
COc1cc(S(F)(F)(F)(F)F)ccc1C[S+]([O-])c1[nH]c2c(Br)ccc(Cl)c2c(=O)c1C(C)=O (stereo not drawn) [Compound 75, 3-acetyl-8-bromo-5-chloro-2-((2-methoxy-4-(pentafluoro-λ6-sulfanyl)benzyl)sulfinyl)quinolin-4(1H)-one] | 1.05 | 1.21 | 0.86 | 1.01
CC(=O)c1c([S+]([O-])Cc2cc(F)cc(S(F)(F)(F)(F)F)c2)[nH]c2c(Br)ccc(Cl)c2c1=O (stereo not drawn) [Compound 76, 3-acetyl-8-bromo-5-chloro-2-((3-fluoro-5 - (pentafluoro-λ6-sulfanyl)benzyl)sulfinyl)quinolin-4(1H)-one] | 1.86 | 1.86 | 1.24 | 1.39
CC(=O)c1c([S+]([O-])Cc2cccc(S(F)(F)(F)(F)F)c2)[nH]c2c(Br)ccc(Cl)c2c1=O (stereo not drawn) [Compound 77, 3-acetyl-8-bromo-5-chloro-2-((3-(pentafluoro-λ6-sulfanyl)benzyl)sulfinyl)quinolin-4(1H)-one] | 1.45 | 1.38 | 0.9 | 1.18
CC(=O)c1c([S+]([O-])Cc2c(F)c(F)c(F)c(F)c2F)[nH]c2c(Br)ccc(Cl)c2c1=O (stereo not drawn) [Compound 78, 3-acetyl-8-bromo-5-chloro-2-(((perfluorophenyl)methyl)sulfinyl)quinolin-4(1H)-one] | 1.53 | > 2 | 1.29 | 1.39
CC(=O)c1c([S+]([O-])Cc2ccc(SC(F)(F)F)cc2)[nH]c2c(Cl)ccc(Cl)c2c1=O (stereo not drawn) [Compound 79, 3-acetyl-5,8-dichloro-2-((4-((trifluoromethyl)thio)benzyl)sulfinyl)quinolin-4(1H)-one] | > 2 | > 2 | > 2 | > 2
CC(=O)c1c([S+]([O-])Cc2ccc(S(F)(F)(F)(F)F)cc2)[nH]c2c(F)ccc(F)c2c1=O (stereo not drawn) [Compound 80, 3-acetyl-5,8-difluoro-2-((4-(pentafluoro-λ6-sulfanyl)benzyl)sulfinyl)quinolin-4(1H)-one] | > 2 | > 2 | > 2 | > 2
CC(=O)c1c([S+]([O-])Cc2ccc(C(F)(F)F)o2)[nH]c2c(F)ccc(F)c2c1=O (stereo not drawn) [Compound 81, 3-acetyl-5,8-difluoro-2-(((5-(trifluoromethyl)furan-2-yl)methyl)sulfinyl)quinolin-4(1H)-one] | > 2 | > 2 | > 2 | > 2
CC(=O)c1c([S+]([O-])Cc2cc(C)on2)[nH]c2c(F)ccc(F)c2c1=O (stereo not drawn) [Compound 82, 3-acetyl-5,8-difluoro-2-(((5-methylisoxazol-3 - yl)methyl)sulfinyl)quinolin-4(1H)-one] | > 2 | > 2 | > 2 | > 2
CC(=O)c1c([S+]([O-])Cc2ccc(I)cc2)[nH]c2c(Cl)ccc(Cl)c2c1=O (stereo not drawn) [Compound 83, 3-acetyl-5,8-dichloro-2-((4-iodobenzyl)sulfinyl)quinolin-4(1H)-one] | 1.35 | 1.6 | 1.42 | 1.31
CC(=O)c1c([S+]([O-])Cc2cccnc2)[nH]c2c(Br)ccc(Cl)c2c1=O (stereo not drawn) [Compound 84, 3-acetyl-8-bromo-5-chloro-2-((pyridin-3-ylmethyl)sulfinyl)quinolin-4(1H)-one] | 0.67 | 1.5 | 0.87 | 0.76
CC(C)C(=O)c1c([S+]([O-])Cc2ccc(SC(F)(F)F)cc2)[nH]c2c(F)ccc(F)c2c1=O (stereo not drawn) [Compound 85, 5,8-difluoro-3-isobutyryl-2-((4-((trifluoromethyl)thio)benzyl)sulfinyl)quinolin-4(1H)-one] | > 2 | > 2 | > 2 | > 2
Cc1cc(C[S+]([O-])c2[nH]c3c(Cl)ccc(Cl)c3c(=O)c2C(=O)C(C)C)no1 (stereo not drawn) [Compound 86, 5,8-dichloro-3-isobutyryl-2-(((5 - methylisoxazol-3-yl)methyl)sulfinyl)quinolin-4(1H)-one] | 0.81 | 1.41 | 1.06 | 1.26
O=C(c1ccccc1)c1c([S+]([O-])Cc2ccc(S(F)(F)(F)(F)F)cc2)[nH]c2c(F)ccc(F)c2c1=O (stereo not drawn) [Compound 87, 3-benzoyl-5,8-difluoro-2-((4-(pentafluoro-λ6-sulfanyl)benzyl)sulfinyl)quinolin-4(1H)-one] | > 2 | > 2 | > 2 | > 2
Cc1cc(C[S+]([O-])c2[nH]c3c(Cl)ccc(Cl)c3c(=O)c2C(=O)c2ccccc2)no1 (stereo not drawn) [Compound 88, 3-benzoyl-5,8-dichloro-2-(((5-methylisoxazol-3-yl)methyl)sulfinyl)quinolin-4(1H)-one] | > 2 | > 2 | > 2 | > 2
COC(=O)c1ccc(C[S+]([O-])c2[nH]c3c(Cl)ccc(Cl)c3c(=O)c2C(C)=O)o1 (stereo not drawn) [Compound 89, methyl 5-(((3-acetyl-5,8-dichloro-4-oxo-1,4-dihydroquinolin-2-yl)sulfinyl)methyl)furan-2-carboxylate] | 1.27 | > 2 | 1.84 | 1.47
COC(=O)c1ccc(C[S+]([O-])c2[nH]c3c(Cl)ccc(Cl)c3c(=O)c2C(C)=O)cc1 (stereo not drawn) [Compound 91, methyl 4-(((3-acetyl-5,8-dichloro-4-oxo-1,4-dihydroquinolin-2-yl)sulfinyl)methyl)benzoate] | 1.37 | > 2 | > 2 | 1.56
COc1cccc2[nH]c([S+]([O-])Cc3ccc(S(F)(F)(F)(F)F)cc3)c(C(C)=O)c(=O)c12 (stereo not drawn) [Compound 93, 3-acetyl-5-methoxy-2-((4-(pentafluoro-λ6-sulfanyl)benzyl)sulfinyl)quinolin-4(1H)-one] | > 2 | > 2 | > 2 | > 2
COc1cccc2[nH]c([S+]([O-])Cc3cc(C)on3)c(C(C)=O)c(=O)c12 (stereo not drawn) [Compound 94, 3-acetyl-5-methoxy-2-(((5-methylisoxazol-3 - yl)methyl)sulfinyl)quinolin-4(1H)-one] | 1.53 | > 2 | > 2 | > 2
Cc1cc(C[S+]([O-])c2[nH]c3c(Br)ccc(Cl)c3c(=O)c2C(=O)C(C)C)no1 (stereo not drawn) [Compound 95, 8-bromo-5-chloro-3-isobutyryl-2-(((5-methylisoxazol-3-yl)methyl)sulfinyl)quinolin-4(1H)-one] | 0.8 | 1.29 | 0.77 | 1.06
Cc1cc(C[S+]([O-])c2[nH]c3c(Br)ccc(Cl)c3c(=O)c2C(=O)C2CC2)no1 (stereo not drawn) [Compound 96, 8-bromo-5-chloro-3-(cyclopropanecarbonyl)-2-(((5-methylisoxazol-3-yl)methyl)sulfinyl)quinolin-4(1H)-one] | 1.06 | > 2 | 1.49 | 1.63
Cc1cc(C[S+]([O-])c2[nH]c3c(Cl)ccc(Cl)c3c(=O)c2C(=O)C2CC2)no1 (stereo not drawn) [Compound 97, 5,8-dichloro-3-(cyclopropanecarbonyl)-2-(((5 - methylisoxazol-3-yl)methyl)sulfinyl)quinolin-4(1H)-one] | 0.81 | 1.62 | 1.2 | 1.27
